# Patent US20240156779A1, “SMALL MOLECULE ALLOSTERIC MODULATORS OF CLASS B GPCR, THE PTHR, AND METHOD TO IDENTIFY THEM” (University of Pittsburgh - Of the Commonwealth System of …, priority 2021, published 2024)
# Residue numbers refer to the chain shown, from its start. Entries after “also recorded” stand apart in the source; their conditions may differ.
# Key:
# human PTHR mutant R181A = target: T1, human PTHR mutant R181A (Homo sapiens, UniProt Q03431, R181A); assay: PTH-induced cAMP signaling of receptor mutant R181A; format: cell-based
# T1 construct: HA
# T1 sequence (Q03431 27-593 R181A): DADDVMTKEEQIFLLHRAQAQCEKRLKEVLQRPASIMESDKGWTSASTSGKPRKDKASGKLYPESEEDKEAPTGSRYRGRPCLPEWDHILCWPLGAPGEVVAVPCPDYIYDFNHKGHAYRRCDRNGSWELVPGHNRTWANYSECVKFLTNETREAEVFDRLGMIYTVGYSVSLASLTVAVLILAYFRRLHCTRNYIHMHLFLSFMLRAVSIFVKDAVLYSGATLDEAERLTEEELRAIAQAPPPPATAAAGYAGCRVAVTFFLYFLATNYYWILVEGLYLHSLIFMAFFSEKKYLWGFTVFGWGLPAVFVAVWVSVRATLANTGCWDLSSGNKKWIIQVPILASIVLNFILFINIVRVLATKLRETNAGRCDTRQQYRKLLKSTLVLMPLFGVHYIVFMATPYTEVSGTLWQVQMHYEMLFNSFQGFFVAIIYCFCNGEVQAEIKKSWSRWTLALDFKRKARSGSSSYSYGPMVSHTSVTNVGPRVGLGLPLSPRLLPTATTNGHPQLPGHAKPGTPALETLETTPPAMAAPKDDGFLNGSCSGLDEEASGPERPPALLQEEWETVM
# human PTHR mutant E180A = target: T2, human PTHR mutant E180A (Homo sapiens, UniProt Q03431, E180A); assay: PTH-induced cAMP signaling of receptor mutant E180A; format: cell-based
# T2 construct: HA
# T2 sequence (Q03431 27-593 E180A): T1 sequence (Q03431 27-593 R181A) with E154A, A155R
# PTHR [1] = target: T3, PTHR (Homo sapiens, UniProt Q03431); assay: Radioligand receptor binding, membranes of GP-2.3 cells; set-up: expressed in transfected cells; host or cells: HEK-293-derived GP-2.3 cells (membranes)
# T3 sequence (Q03431 27-593): T1 sequence (Q03431 27-593 R181A) with A155R
# recombinant PTHR = assay: Intracellular Ca2+ release (Fluo-4) in response to PTH; format: cell-based; conditions: 100 nM PTH, 10 μM Pitt molecules
# PTHR [2] = target: T3, PTHR; assay: PTH-induced cAMP time courses (FRET sensor) in HEK293 cells stably expressing PTHR; format: cell-based; set-up: expressed in transfected cells; conditions: for inhibition of PTH-mediated cAMP production compared with Pitt12: 10 μM compound
# [3] = target: T4, PTHR association with G proteins (mGs, mGq) (Homo sapiens, UniProt Q03431); assay: FRET time courses of PTHR-CFP interaction with mini-Gs and mini-Gq; format: cell-based; conditions: PTH-induced
# T4 construct: expressed in transfected cells
# T4 sequence (Q03431 27-593): T1 sequence (Q03431 27-593 R181A) with A155R
# T4 sequence (P01270 32-65 partner limits assumed): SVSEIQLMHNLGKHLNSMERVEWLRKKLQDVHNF
# [4] = target: b2-adrenergic receptor (b2AR) (Homo sapiens, UniProt P07550); assay: cAMP production mediated by b2AR agonist isoproterenol; format: cell-based; conditions: in response to isoproterenol
# b2-adrenergic receptor (b2AR), sequence (P07550 whole entry, species assumed): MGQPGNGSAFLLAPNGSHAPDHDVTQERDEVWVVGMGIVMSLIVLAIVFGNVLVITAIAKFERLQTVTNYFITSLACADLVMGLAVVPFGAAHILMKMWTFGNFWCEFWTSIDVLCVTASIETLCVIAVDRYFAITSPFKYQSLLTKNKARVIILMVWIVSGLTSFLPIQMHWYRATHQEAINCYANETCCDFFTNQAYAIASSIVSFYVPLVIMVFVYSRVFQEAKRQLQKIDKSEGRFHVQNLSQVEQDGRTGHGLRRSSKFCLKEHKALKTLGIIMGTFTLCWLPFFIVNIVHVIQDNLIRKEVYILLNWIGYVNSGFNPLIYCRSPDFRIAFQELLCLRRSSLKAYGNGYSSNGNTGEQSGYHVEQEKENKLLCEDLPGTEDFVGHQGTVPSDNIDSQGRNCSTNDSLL
# [5] = target: vasopressin type 2 receptor (V2R) (Homo sapiens, UniProt P30518); assay: vasopressin-mediated cAMP production; format: cell-based
# vasopressin type 2 receptor (V2R), sequence (P30518 whole entry, species assumed): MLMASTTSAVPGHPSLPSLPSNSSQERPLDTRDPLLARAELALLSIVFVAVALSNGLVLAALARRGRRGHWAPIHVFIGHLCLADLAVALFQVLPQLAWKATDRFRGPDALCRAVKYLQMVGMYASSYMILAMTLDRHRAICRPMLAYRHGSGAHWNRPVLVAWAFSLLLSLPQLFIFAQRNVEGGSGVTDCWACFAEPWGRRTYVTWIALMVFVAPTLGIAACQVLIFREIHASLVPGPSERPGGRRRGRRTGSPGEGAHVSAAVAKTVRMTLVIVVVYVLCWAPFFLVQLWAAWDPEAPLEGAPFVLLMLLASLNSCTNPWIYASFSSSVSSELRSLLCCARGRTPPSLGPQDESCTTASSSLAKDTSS
# [6] = target: T5, human PTH type 1 receptor (hPTHR) (Homo sapiens, UniProt Q03431); assay: Concentration-response curves for cAMP (GloSensor) by PTH with Pitt molecules; format: cell-based; conditions: range of Pitt concentrations
# T5 construct: expressed in transfected cells
# T5 sequence (Q03431 27-593): T1 sequence (Q03431 27-593 R181A) with A155R
# PTHR [7] = target: T3, PTHR; conditions: cited from earlier work
# [8] = 20 μmol/kg, 3 h after injection
structure (smiles),measurement,setting,value
COc1ccc([C@@H]2CN(C(=O)OCC3c4ccccc4-c4ccccc43)C[C@H]2C(=O)O)cc1 [Pitt12],sensitivity of R181A mutant to modulation of PTH-induced cAMP,human PTHR mutant R181A,lost their ability to respond to negative modulation
same,sensitivity of E180A mutant to modulation of PTH-induced cAMP,human PTHR mutant E180A,lost their ability to respond to negative modulation
same,"inhibitory binding constant (Ki), RG state",PTHR [1]; G-protein coupled (RG) state,in the μM range
same,"inhibitory binding constant (Ki), R0 state","PTHR [1]; G-protein uncoupled (R0) state, with GTPgS",in the μM range
same,PTH-mediated release of stored intracellular Ca2+,recombinant PTHR,noticeable reduction
same,alteration of plasma membrane cAMP,PTHR [2]; 1 nM PTH,≈ 30%
same,reduction of endosomal cAMP production,PTHR [2]; 1 nM PTH,≈ 70%
same,effect on PTH-induced cAMP production (AUC of time course),"PTHR [2]; 1 nM PTH co-applied with 10 μM compound, HEK293-PTHR",distinguishably high potential to elicit negative effects
same,sustained cAMP response on blockade of receptor internalization,"PTHR [2]; cells expressing DynK44A, PTH with Pitt coapplied",moderately affected
same,G proteins association with the receptor,[3],decrease in both the kinetics and magnitude
same,"serum Ca2+ (sCa2+) level, compound alone",C57BL/6 mice; [8],significantly reduced
same,"serum phosphate (sPi) level, compound alone",C57BL/6 mice; [8],trend of reducing
same,BUN/creatine ratio (kidney function and hydration status),"C57BL/6 mice; mouse, in vivo",lack of significant changes
same,effect on β2AR-mediated cAMP production,[4],no effect
same,effect on vasopressin-mediated cAMP,[5],lack of effect
same,effect on efficacy (Emax) of PTH to mediate cAMP increase,[6],blocked cAMP production by PTH; also recorded: marked reduction in efficacy
Cc1cc(N2C(=O)NC(=O)C2(C)C)cc(C)c1CCS(=O)(=O)N1CCC2(CC1)N=C(c1ccc(OC(F)(F)F)cc1)NC2=O [PCO371],mode of action at PTHR,PTHR [7],orthosteric agonist
Cc1ccc([C@@H]2CN(C(=O)OCC3c4ccccc4-c4ccccc43)C[C@H]2C(=O)O)cc1 [Pitt42],inhibition of PTH-mediated cAMP production compared with Pitt12,PTHR [2]; HEK293-PTHR,more efficacious than Pitt12
O=C(O)[C@@H]1CN(C(=O)OCC2c3ccccc3-c3ccccc32)C[C@H]1c1ccccc1 [Pitt41],inhibition of PTH-mediated cAMP production compared with Pitt12,PTHR [2]; HEK293-PTHR,more efficacious than Pitt12
CCCCn1c(O)c(C(=N)N)c(=O)n(CCCC)c1=O [AH-3960],mode of action at PTHR,PTHR [7],weak agonist
